Molecules are shown by their SMILES. pIC50: −log10 of the molar value. Where two headings read alike, the source gives them in different places.

In series [1] the target is T1, BRAFV600E (Homo sapiens, UniProt P15056, V600E).
T1 construct: purchased ABCAM ab204154
The series is described as follows: BRAFV600E enzyme activity test (ADP-Glo, MEK1K97R substrate). The format is biochemical. Particulars: Inhibitory activities of compounds on BRAFV600E. The method, then: BRAFV600E (ABCAM, ab204154) and MEK1K97R (USBio, M2865-06J) proteins were diluted at an appropriate dilution factor using 1×Assay buffer (PH = 7.4 Tris-HCl buffer, supplemented with 10 mM MgCl2) such that the final concentration of BRAFV600E was 10 ng/µL and the final concentration of substrate MEK1K97R was 1 µM. 1 µL of BRAFV600E, 1 µL of compound serial dilution (final concentration starting from 2 µM, 5-fold dilution, 8 concentrations), and 6 µL of Assay buffer were pipetted to a 384-well reaction plate with a capacity of 20 µL. The plate was pre-incubated in a constant temperature incubator at 37°C for 30 min. 1 µL of 200 µM ATP and 1 µM MEK1 K97R were added to the reaction wells corresponding to the compound incubation, and mixed evenly by shaking, and preincubation was performed in a constant temperature incubator at 37°C for 60 min for enzymatic reaction. After the reaction was completed, 5 µL of the above reaction product was pipetted to another 384-well plate, and 5 µL of formulated ADP-Glo™ Reagent (Promega, V9101) was added and mixed evenly by pipetting, and then the plate was placed at room temperature for 40 min. 10 µL Kinase Detection Reagent was added to the 384-well plate and incubated at room temperature for 40 min. Finally, a microplate reader (BMG LRBTECH) was used and Luminescence module was selected to detect the LUM fluorescence value of each well (the gain value was fixed at 3600), and the formula Inhibition rate% = (1−(LUM Compound−LUM Background)/(LUM Solvent−LUM Background))∗100% [formula] was used to calculate the inhibition rate of the compound on BRAFV600E. The Graphpad software log(inhibitor) vs. response -- Variable slope (four parameters) equation was used to perform fitting analysis and calculate the IC50value of the sample.

Series [2] has as its system A375 cells. The series is described as follows: A375 cell proliferation inhibition test. Particulars: Homo sapiens, A-375, 72 h; for pIC50: A375 cells, values in text, read-out: IC50; for IC50: Inhibitory activities of compounds on A375 cells, read-out: IC50/nM. The format is cell-based. As for the experimental part: A375 cells (ATCC, CRL-1619) were cultured in DMEM complete medium (+10% FBS) in a CO2 incubator at 37°C for 48 h. The cells were trypsinised and counted, and then the density was adjusted to 1.67 × 10^4 cells/mL. 90 µL (1500 cells) of cells were inoculated into each well of a 96-well transparent bottom plate, and the plate was transferred to a CO2 incubator and the cells were cultured at 37°C overnight. After the cells were incubated overnight, 10 µL of the diluted compound (final concentration starting from 10 µM, 3-fold dilution, 11 concentrations) was added to each well using a multi-channel pipette. The […] control was a serum-free medium containing DMSO. After mixing evenly, the cells were placed in a CO2 incubator at 37°C for 72 h. After the incubation, the CellCounting-Lite®2.0 kit detection solution (Vazyme, DD1101-03) was taken out and returned to room temperature. 100 µL of CellCounting-Lite2.0 detection solution was added to each well, the plate was sealed with a sealing film, and the plate was placed on a shaker for shaking for 15 min (the whole process should be kept away from light). The Luminescence module of the microplate reader (BMG LRBTECH) was used to detect the fluorescence signal value LUM of each well. The formula Inhibition rate% = ((LUM Solvent−LUM Compound)/(LUM Solvent))∗100% [formula] was used to calculate the inhibition rate of the compound. The Graphpad software log(inhibitor) vs. response -- Variable slope (four parameters) equation was used to perform fitting analysis and calculate the IC50value of the sample. The ordinate of the data is the percentage of inhibition rate, and the abscissa is the logarithm of the sample concentration (Log10).

Series [3] can be described thus: Pharmacokinetic test in mice. The format is in vivo, ICR mice. Particulars: mouse, plasma; for Vd: read-out: Vdss. The method, then: 3.1 Experimental animals: Male ICR mice, 20-25 g, 6 mice/compound, purchased from Chengdu Dossy Experimental Animals Co., Ltd.
3.2 Experimental design: On the day of the experiment, the ICR mice were randomly grouped according to their body weights. The animals were fasted with water available for 12-14 h one day before the administration, and were fed 4 h after the administration. Table 3.1 Administration information
vehicle for intravenous administration: 5% DMA + 5% Solutol + 90% Saline; vehicle for intragastric administration: 0.5% MC
Before and after administration, 0.06 mL of blood was taken from the orbit under isoflurane anaesthesia and placed in an EDTAK2 centrifuge tube. The tube was centrifuged at 5000 rpm at 4°C for 10 min, and plasma was collected. The blood sampling time points for both the intravenous administration group and intragastric administration group were 0 min, 5 min, 15 min, 30 min, 1 h, 2 h, 4 h, 7 h, 24 h, and 48 h. Before analysis and detection, all samples were stored at -80°C, and the samples were quantitatively analysed by LC-MS/MS. Table 3.2 Pharmacokinetic parameters of test compounds in plasma of mice

The nature of series [4]: Pharmacokinetic test in rats. The format is in vivo, SD rats. The settings on record: rat, plasma; for Vd: read-out: Vdss. The method, then: 5.1 Experimental animals: Male SD rats, about 220 g, 6-8 weeks old, 6 rats/compound, purchased from Chengdu Dossy Experimental Animals Co., Ltd.
5.2 Experimental design: On the day of the experiment, the SD rats were randomly grouped according to their body weights. The animals were fasted with water available for 12-14 h one day before the administration, and were fed 4 h after the administration.
5.3 Test compounds: compounds in the examples and control compounds. Table 5.1 Administration information
Before and after administration, 0.1 ml of blood was taken from the orbit under isoflurane anaesthesia and placed in an EDTAK2 centrifuge tube. The tube was centrifuged at 5000 rpm at 4°C for 10 min, and plasma was collected. Blood sampling time points for the intravenous administration group: 0 min, 5 min, 15 min, 30 min, 1 h, 2 h, 4 h, 6 h, 8 h, 24 h, and 48 h; blood sampling time points for the intragastric administration group: 0 min, 5 min, 15 min, 30 min, 1 h, 2 h, 4 h, 6 h, 8 h, 24 h, and 48 h. Before analysis and detection, all samples were stored at -80°C, and the samples were quantitatively analysed by LC-MS/MS. Table 5.2 Pharmacokinetic parameters of test compounds in plasma of rats

Series [5] is described as follows: Liver microsomal stability test (monkey liver microsomal model). The format is in vitro ADME. Particulars: monkey liver microsomes, 1 µM test compound, NADPH, 37°C. The method, then: In this experiment, liver microsomes of five species, including human, monkey, dog, rat and mouse, were used as in vitro models to evaluate the metabolic stability of the test compound.
At 37°C, 1 µM of the test compound was co-incubated with microsomal protein and coenzyme NADPH. At given time points of the reaction (5 min, 10 min, 20 min, 30 min, and 60 min), the reaction was terminated by adding ice-cold acetonitrile containing an internal standard. The LC-MS/MS method was used to measure the concentration of the test compound in the sample. T1/2 was calculated using the ln value of the percentage of drug remaining in the incubation system and the incubation time. In addition, the intrinsic clearance in liver microsomes CLint(mic) and the intrinsic clearance in liver CLint(Liver) were further calculated. Table 6 Results of test compounds in monkey liver microsomal model

The nature of series [6]: Pharmacokinetic test in mice. The format is in vivo, ICR mice. The settings on record: i.g. (10 mg/kg), relative to Control compound 1.
Series [7] has as its target MDR1 (Homo sapiens, UniProt P08183). Particulars: reported in the background; cited from earlier work.
For series [8], the target named is T2, BCRP (Homo sapiens, UniProt Q9UNQ0).
T2 sequence (Q9UNQ0 1-655): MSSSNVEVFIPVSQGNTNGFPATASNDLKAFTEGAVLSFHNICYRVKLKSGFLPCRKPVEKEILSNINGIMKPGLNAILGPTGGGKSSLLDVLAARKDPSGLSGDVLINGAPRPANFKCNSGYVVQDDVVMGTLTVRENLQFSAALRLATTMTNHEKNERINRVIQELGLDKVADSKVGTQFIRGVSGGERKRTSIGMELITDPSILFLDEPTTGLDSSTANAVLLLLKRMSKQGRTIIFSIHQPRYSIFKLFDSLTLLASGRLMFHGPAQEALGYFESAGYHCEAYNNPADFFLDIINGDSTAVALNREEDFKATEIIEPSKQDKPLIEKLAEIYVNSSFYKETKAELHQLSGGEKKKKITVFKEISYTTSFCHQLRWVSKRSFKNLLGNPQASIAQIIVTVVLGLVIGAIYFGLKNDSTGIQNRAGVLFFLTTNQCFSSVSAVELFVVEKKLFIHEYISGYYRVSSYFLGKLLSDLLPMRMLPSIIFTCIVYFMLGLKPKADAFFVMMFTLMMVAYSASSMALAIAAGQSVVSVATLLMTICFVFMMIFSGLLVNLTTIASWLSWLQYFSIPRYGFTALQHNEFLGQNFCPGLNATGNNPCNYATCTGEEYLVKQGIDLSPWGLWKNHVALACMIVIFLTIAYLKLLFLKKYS
Particulars: reported in the background; cited from earlier work.

For series [9] the following is noted: reported in the background; cited from earlier work.

T1 sequence (P15056 416-766 V600E limits assumed): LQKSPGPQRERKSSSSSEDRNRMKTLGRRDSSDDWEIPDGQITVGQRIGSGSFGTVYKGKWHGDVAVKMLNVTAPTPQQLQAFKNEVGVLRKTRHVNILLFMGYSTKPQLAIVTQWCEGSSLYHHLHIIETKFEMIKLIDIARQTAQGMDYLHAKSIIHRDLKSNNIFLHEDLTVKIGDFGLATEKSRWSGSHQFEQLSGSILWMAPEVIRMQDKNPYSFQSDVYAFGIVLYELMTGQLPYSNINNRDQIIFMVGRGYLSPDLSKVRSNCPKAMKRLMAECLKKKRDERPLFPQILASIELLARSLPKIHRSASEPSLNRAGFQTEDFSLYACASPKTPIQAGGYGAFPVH
MDR1, sequence (P08183 whole entry, species assumed): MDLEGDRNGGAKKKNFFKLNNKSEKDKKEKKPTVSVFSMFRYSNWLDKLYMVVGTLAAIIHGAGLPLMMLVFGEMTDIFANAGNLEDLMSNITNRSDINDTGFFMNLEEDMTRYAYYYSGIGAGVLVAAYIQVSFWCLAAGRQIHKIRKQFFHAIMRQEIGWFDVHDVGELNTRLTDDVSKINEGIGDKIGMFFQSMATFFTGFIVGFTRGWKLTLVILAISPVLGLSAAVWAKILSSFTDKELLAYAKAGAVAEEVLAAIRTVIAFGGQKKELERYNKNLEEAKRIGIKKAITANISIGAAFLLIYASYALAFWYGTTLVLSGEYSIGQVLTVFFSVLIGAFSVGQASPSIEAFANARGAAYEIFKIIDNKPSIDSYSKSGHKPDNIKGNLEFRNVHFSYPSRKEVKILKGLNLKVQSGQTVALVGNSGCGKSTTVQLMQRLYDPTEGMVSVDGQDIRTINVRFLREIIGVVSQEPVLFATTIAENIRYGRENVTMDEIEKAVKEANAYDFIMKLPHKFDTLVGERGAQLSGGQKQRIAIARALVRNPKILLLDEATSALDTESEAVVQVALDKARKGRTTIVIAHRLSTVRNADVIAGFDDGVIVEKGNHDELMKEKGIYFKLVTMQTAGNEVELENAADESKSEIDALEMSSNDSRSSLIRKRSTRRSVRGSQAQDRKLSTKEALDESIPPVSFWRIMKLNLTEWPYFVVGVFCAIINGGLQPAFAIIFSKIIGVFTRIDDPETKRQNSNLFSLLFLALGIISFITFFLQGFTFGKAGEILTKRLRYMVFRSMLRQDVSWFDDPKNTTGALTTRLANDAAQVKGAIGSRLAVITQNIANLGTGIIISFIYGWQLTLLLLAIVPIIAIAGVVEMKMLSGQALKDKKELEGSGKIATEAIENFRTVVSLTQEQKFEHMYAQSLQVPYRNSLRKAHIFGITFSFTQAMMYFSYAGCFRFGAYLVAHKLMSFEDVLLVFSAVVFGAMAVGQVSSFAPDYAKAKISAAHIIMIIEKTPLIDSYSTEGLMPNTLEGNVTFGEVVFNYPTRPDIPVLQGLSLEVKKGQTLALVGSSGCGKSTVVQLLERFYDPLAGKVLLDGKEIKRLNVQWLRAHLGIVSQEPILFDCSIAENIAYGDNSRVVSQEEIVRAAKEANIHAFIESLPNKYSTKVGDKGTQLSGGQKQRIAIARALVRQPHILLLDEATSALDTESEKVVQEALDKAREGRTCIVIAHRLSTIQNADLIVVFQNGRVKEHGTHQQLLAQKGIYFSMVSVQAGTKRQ

The molecule `C=C1CN(S(=O)(=O)Nc2ccc(F)c(Oc3ccc4ncn(CC(F)F)c(=O)c4c3)c2C#N)C1` [Compound 3] displayed an IC50 in series [1] not above 10 nM. In addition, in series [2], the pIC50 was 9.85 and the IC50 is not above 10 nM. In series [3] (iv, i.v. (2.5 mg/kg)), the AUC(0-t) was 225 µg·h/mL, the clearance was determined as 0.186 mL/min/kg, the half-life was 521 min and the Vd stood at 0.112 L/kg. In series [3] (po, i.g. (10 mg/kg)), the bioavailability is 84.5%, the AUC(0-t) worked out at 762 µg·h/mL and the half-life is 618 min. In addition, in [4] (iv, i.v. (2.5 mg/kg)), the AUC(0-t) came out at 41 µg·h/mL, the clearance worked out at 5.46 mL/h/kg, the half-life was 1150 min and the Vd was found to be 0.126 L/kg. In addition, in series [4] (po, i.g. (10 mg/kg)), the bioavailability was 62.8%, the AUC(0-t) came to 1030 µg·h/mL and the half-life is 834 min. Besides, the “Percentage of drug remaining after 60 min of incubation” value in series [5] was 56.1%. The “Fold change in brain-blood ratio relative to control compound” value in [6] came to 10.8.

In series [1], `CC=C1CN(S(=O)(=O)Nc2ccc(F)c(Oc3ccc4ncn(CC(F)F)c(=O)c4c3)c2C#N)C1` [Compound 7] gave an IC50 not above 10 nM. In series [2], the pIC50 is 9.18 and the IC50 is not above 10 nM. In series [3] (iv, i.v. (2.5 mg/kg)), the AUC(0-t) came out at 228 µg·h/mL, the clearance amounted to 0.171 mL/min/kg, the half-life is 768 min and the Vd turned out to be 0.156 L/kg. In series [3] (po, i.g. (10 mg/kg)), this molecule showed a bioavailability of 90.6%, an AUC(0-t) of 825 µg·h/mL and a half-life of 642 min. Besides, in series [4] (iv, i.v. (2.5 mg/kg)), the AUC(0-t) was found to be 376 µg·h/mL, the clearance was determined as 6.54 mL/h/kg, the half-life is 852 min and the Vd came to 0.096 L/kg. In series [4] (po, i.g. (10 mg/kg)), this molecule showed a bioavailability of 81.3%, an AUC(0-t) of 1220 µg·h/mL and a half-life of 810 min. The “Percentage of drug remaining after 60 min of incubation” value in [5] was found to be 48.2%. For the same molecule, the “Fold change in brain-blood ratio relative to control compound” value in [6] was found to be 10.5.

For the molecule `CC(C)(C)c1nc(-c2cccc(NS(=O)(=O)c3c(F)cccc3F)c2F)c(-c2ccnc(N)n2)s1` [dabrafenib], in series [7], the MDR1 efflux ratio is 11.4. In addition, the BCRP efflux ratio in series [8] is reported as 21.0. Further, the total brain-to-plasma ratio in [9] was 0.023.

The values are drawn from patent publication EP4813985A1, “PREPARATION OF QUINAZOLINONE DERIVATIVE AS KINASE INHIBITOR, AND USE THEREOF” (Xizang Haisco Pharmaceutical Co., Ltd., priority 2023, dated 2025).
